Measurements from patent publication US20050112573A1, “Method of detecting toxic substance” (priority 2001, published 2005).

Test system: yeast genes (level of expressed mRNA)
Assay: DNA chip analysis of expressed mRNA of yeast genes after 2 h culture with a toxic chemical substance
Format: cell-based, Saccharomyces cerevisiae S288C
Protocol: Yeast (Saccharomyces cerevtisiae S288C (α SUC2mal mel gap2 CUP1)) were cultured at 25° C. on YPD medium (yeast extract 1%, polypepton 2%, glucose 2%). One of toxic chemical substances was added to the cell at logarithmic growth phase, and the cell was further cultured for two hours. Cell was cultured without any chemical substance in the same condition, and was used as control. Concentrations of the chemical substances were defined to inhibit the growth of the yeast but not lead to death.
After the completion of cultivation, the culture was centrifuged to collect the cells. To the cells, sodium acetate buffer (50 mM sodium acetate, 10 mM EDTA, 1% SDS) was added, and the mixture was shaken at 65° C. for five minutes, followed by returning to room temperature, and obtaining the supernatant, which procedure was repeated two times. To the supernatant, ½ amount of a solution of phenol/chloroform was added, and the mixture was centrifuged to give a supernatant, which was added with an equal amount of chloroform, and the mixture was centrifuged to give a supernatant. To the supernatant, an equal amount of isopropanol containing 0.3 M sodium acetate was added, and the mixture was allowed to stand at room temperature for 30 minutes, after which the mixture was centrifuged to give a sediment of the whole RNAs. Seventy % ethanol was added to the sediment, and the mixture was again centrifuged to give a sediment, which was then dried and dissolved in water. mRNA was isolated from the whole RNAs as followings. In view of the fact that a poly A chain is attached to the 3′ terminus of mRNA, a polynucleotide having a poly T structure which was immobilized on the surface of latex beads was used to trap the mRNA, and then the mRNA was washed and eluted with spine column (Oligotex-dT30<Super>mRNA Purification Kit, Takara). Reverse transcription of the mRNA was conducted with a reverse transcriptase (Super Script II Reverse Transcriptase; catalogue No. 18064-014, GibcoBRL) using fluorescence-labeled nucleotides to give cDNAs that were introduced with Cy3-dUTP or Cy5-dUTP during the reverse transcription.
The labeled cDNAs were dissolved in TE buffer (10 mM Tris-HCl/1 mM EDTA, pH8.0), and the solution was dropped on the DNA chip containing the whole genes of yeast (DNA Chip Research Inc. Japan) so that the cDNAs were hybridized on the DNA chip at 65° C. for over 12 hours. The fluoresces intensity of the DNA chip was read with a scanner, and the ratio relative to the fluorescence intensity resulting from the absence of chemical substance was estimated as the following, which is shown in Tables 1 to 9: [formula]
In the Tables, “Intensity” indicated in the rightmost column is a value of the level of expressed mRNA of each gene in control cells as divided by the average level of the expressions of the whole genes.

S=C([S-])NCCNC(=S)[S-].[Zn+2] [(11), zinc N,N′-ethylenebis(dithiocarbamate)]
The level of expressed mRNA in the presence of chemical substance/absence: YML029W (gene YML029W): 1.2
The level of expressed mRNA in the presence of chemical substance/absence: YML041C (gene YML041C): 0.9
The level of expressed mRNA in the presence of chemical substance/absence: YML079W (gene YML079W): 1.2
level of expressed mRNA in the presence of chemical substance/in its absence (gene YML110C): 1.7
The level of expressed mRNA in the presence of chemical substance/absence: YML118W (gene YML118W): 1.3
The level of expressed mRNA in the presence of chemical substance/absence: YMR068W (gene YMR068W): 1.1
The level of expressed mRNA in the presence of chemical substance/absence: YMR071C (gene YMR071C): 1.2
level of expressed mRNA in the presence of chemical substance/in its absence (gene YMR105C): 3.0
The level of expressed mRNA in the presence of chemical substance/absence: YMR114C (gene YMR114C): 1.0
The level of expressed mRNA in the presence of chemical substance/absence: YMR115W (gene YMR115W): 1.1
The level of expressed mRNA in the presence of chemical substance/absence: YMR160W (gene YMR160W): 1.0
level of expressed mRNA in the presence of chemical substance/in its absence (gene YMR189W): 8.2
The level of expressed mRNA in the presence of chemical substance/absence: YMR258C (gene YMR258C): 1.4
level of expressed mRNA in the presence of chemical substance/in its absence (gene YMR271C): 1.7
level of expressed mRNA in the presence of chemical substance/in its absence (gene YMR272C): 0.8
level of expressed mRNA in the presence of chemical substance/in its absence (gene YMR296C): 0.8
level of expressed mRNA in the presence of chemical substance/in its absence (gene YNL012W): 1.6
The level of expressed mRNA in the presence of chemical substance/absence: YNL026W (gene YNL026W): 1.1
level of expressed mRNA in the presence of chemical substance/in its absence (gene YNL037C): 1.4
level of expressed mRNA in the presence of chemical substance/in its absence (gene YNL045W): 2.1
The level of expressed mRNA in the presence of chemical substance/absence: YNL058C (gene YNL058C): 1.0
The level of expressed mRNA in the presence of chemical substance/absence: YNL063W (gene YNL063W): 1.1
level of expressed mRNA in the presence of chemical substance/in its absence (gene YNL104C): 2.1
level of expressed mRNA in the presence of chemical substance/in its absence (gene YNL106C): 0.9
level of expressed mRNA in the presence of chemical substance/in its absence (gene YNL130C): 1.5
level of expressed mRNA in the presence of chemical substance/in its absence (gene YNL169C): 0.8
The level of expressed mRNA in the presence of chemical substance/absence: YNL176C (gene YNL176C): 1.2
The level of expressed mRNA in the presence of chemical substance/absence: YNL181W (gene YNL181W): 1.2
The level of expressed mRNA in the presence of chemical substance/absence: YNL191W (gene YNL191W): 1.0
The level of expressed mRNA in the presence of chemical substance/absence: YNL194C (gene YNL194C): 17.1
The level of expressed mRNA in the presence of chemical substance/absence: YNL200C (gene YNL200C): 3.1
The level of expressed mRNA in the presence of chemical substance/absence: YNL212W (gene YNL212W): 1.3
level of expressed mRNA in the presence of chemical substance/in its absence (gene YNL231C): 1.3
The level of expressed mRNA in the presence of chemical substance/absence: YNL253W (gene YNL253W): 0.8
The level of expressed mRNA in the presence of chemical substance/absence: YNL265C (gene YNL265C): 0.9
The level of expressed mRNA in the presence of chemical substance/absence: YNL276C (gene YNL276C): 0.7
level of expressed mRNA in the presence of chemical substance/in its absence (gene YNL322C): 0.6
level of expressed mRNA in the presence of chemical substance/in its absence (gene YNR002C): 1.6
level of expressed mRNA in the presence of chemical substance/in its absence (gene YNR019W): 0.7
level of expressed mRNA in the presence of chemical substance/in its absence (gene YNR033W): 0.4
The level of expressed mRNA in the presence of chemical substance/absence: YNR051C (gene YNR051C): 1.5
level of expressed mRNA in the presence of chemical substance/in its absence (gene YNR059W): 1.0
The level of expressed mRNA in the presence of chemical substance/absence: YOL026C (gene YOL026C): 1.2
The level of expressed mRNA in the presence of chemical substance/absence: YOL030W (gene YOL030W): 1.3
level of expressed mRNA in the presence of chemical substance/in its absence (gene YOL058W): 2.3
level of expressed mRNA in the presence of chemical substance/in its absence (gene YOL126C): 1.8
level of expressed mRNA in the presence of chemical substance/in its absence (gene YOL143C): 2.0
level of expressed mRNA in the presence of chemical substance/in its absence (gene YOL153C): 2.4
level of expressed mRNA in the presence of chemical substance/in its absence (gene YOL157C): 1.2
The level of expressed mRNA in the presence of chemical substance/absence: YOR022C (gene YOR022C): 1.7
The level of expressed mRNA in the presence of chemical substance/absence: YOR087W (gene YOR087W): 1.3
The level of expressed mRNA in the presence of chemical substance/absence: YOR088W (gene YOR088W): 0.8
level of expressed mRNA in the presence of chemical substance/in its absence (gene YOR099W): 1.2
level of expressed mRNA in the presence of chemical substance/in its absence (gene YOR130C): 0.6
level of expressed mRNA in the presence of chemical substance/in its absence (gene YOR136W): 1.4
The level of expressed mRNA in the presence of chemical substance/absence: YOR138C (gene YOR138C): 0.7
The level of expressed mRNA in the presence of chemical substance/absence: YOR155C (gene YOR155C): 1.6
